Where a name gives a salt, the structure may show the parent alone. A value given as a limit tells only on which side of the number the result lay.

One assay has as its target T1, TBK1 (Homo sapiens, UniProt Q9UHD2).
T1 construct: All protein kinases were of human origin and encoded full length proteins, unless indicated otherwise; His6; made in house; host or cells: insect Sf21 cells
T1 sequence (Q9UHD2 1-729): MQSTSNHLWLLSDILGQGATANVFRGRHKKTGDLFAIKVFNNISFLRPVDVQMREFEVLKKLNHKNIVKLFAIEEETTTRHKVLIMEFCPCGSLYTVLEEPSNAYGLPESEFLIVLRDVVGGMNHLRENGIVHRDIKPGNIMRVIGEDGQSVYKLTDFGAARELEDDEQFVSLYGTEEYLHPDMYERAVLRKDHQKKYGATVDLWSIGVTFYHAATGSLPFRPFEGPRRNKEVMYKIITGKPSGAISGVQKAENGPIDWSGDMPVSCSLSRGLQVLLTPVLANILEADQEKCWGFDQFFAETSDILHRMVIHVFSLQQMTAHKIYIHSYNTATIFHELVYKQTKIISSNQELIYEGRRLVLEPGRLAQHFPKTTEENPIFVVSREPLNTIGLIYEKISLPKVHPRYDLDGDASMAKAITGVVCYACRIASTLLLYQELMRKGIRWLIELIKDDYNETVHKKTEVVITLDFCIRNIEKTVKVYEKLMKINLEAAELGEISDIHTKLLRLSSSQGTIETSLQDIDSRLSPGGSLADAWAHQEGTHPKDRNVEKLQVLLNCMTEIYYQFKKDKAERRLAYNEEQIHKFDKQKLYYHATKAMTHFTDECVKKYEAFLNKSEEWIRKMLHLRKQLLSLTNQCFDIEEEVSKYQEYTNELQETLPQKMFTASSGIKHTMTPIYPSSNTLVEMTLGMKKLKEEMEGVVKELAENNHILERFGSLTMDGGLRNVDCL
Put plainly: TBK1 protein kinase assay ([γ-33P]ATP, P81 filterplates). It counts as biochemical. The following applies: 50 μM ATP; read-out: Potency (TBK1 IC50 potency score). The text has this:
All protein kinases were of human origin and encoded full length proteins, unless indicated otherwise. They were either expressed as glutathione S-transferase (GST) fusion proteins in Escherichia Coli or as hexahistidine (His6)-tagged proteins in insect Sf21 cells. GST fusion proteins were purified by affinity chromatography on glutathione-Sepharose, and His6-tagged proteins on nickel/nitriloacetate-agarose. The procedures for expressing some of the protein kinases used herein have been detailed previously.^8,9 The following sections outline the DNA vectors synthesised and the procedures used to express and purifying protein kinases that have not been reported previously.
The following kinases were expressed in Sf21 cells: Aurora B and Aurora C, extra-cellular signal-regulated kinase 8 (ERK8), microtubule affinity regulating kinase 3 (MARK3), protein kinase Bα[118-480][S473D], protein kinase Bβ (PKBβ[120-481][S474D], 3-phosphoinositide-dependent protein kinase-1 [52-556]
Assays were performed for 30 min using Multidrop Micro reagent dispensers (Thermo Electron Corporation, Waltham, Mass. 02454, USA) in a 96-well format. The concentration of magnesium acetate in the assays was 10 mM and the [γ-33P] ATP (800 cpm/pmol) was used at 5, 20 or 50 μM as indicated, in order to be at or below the Km for ATP for each enzyme. Protein kinases assayed at 5 μM ATP were: —ERK1, ERK8, PKBα, MARK3, Aurora C. Protein kinases assayed at 20 μM ATP were: —JNK1, PDK1, CHK1, CHK2, CDK2 and Aurora B. Protein kinases assayed at 50 μM ATP were: —MNK2, IKKepsilon and TBK1.
The assays were initiated with MgATP, stopped by addition of 5 μl of 0.5 M orthophosphoric acid and spotted on to P81 filterplates using a unifilter harvester (PerkinElmer, Boston, Mass. 02118, USA). The IC50 values of inhibitors were determined after carrying out assays at 10 different concentrations of each compound.
ERK1 and ERK8 were both assayed against myelin basic protein (MBP, 0.33 mg/ml). MARK3 was assayed against the peptide […] (300 μM), MNK2 against the eIF4E protein (0.5 mg/ml). PKBβ was assayed against the peptide […] (30 μM). TBK1 were assayed against ([…]) (300 μM). The substrates used for other protein kinases were described previously.^8,9
Unless stated otherwise, enzymes were diluted in 50 mM Tris/HCl pH 7.5, 0.1 mM EGTA, 1 mg/ml BSA, 0.1% (v/v) 2-mercaptoethanol and assayed in 50 mM Tris/HCl pH 7.5, 0.1 mM EGTA, 0.1% (v/v) 2-mercaptoethanol.
For `CC(=O)NCCCNc1nc(Nc2cccc(F)c2)ncc1C1CC1` [Example 1, N-{3-[5-Cyclopropyl-2-(3-fluoro-phenylamino)-pyrimidin-4-ylamino]-propyl}-acetamide trifluoroacetic acid salt], the IC50 (usually the concentration needed to halve the response being measured) lay in the range of 100 to 1000 nM.

Take `CC(C)C(=O)NCCCNc1nc(Nc2cccc(F)c2)ncc1C1CC1` [Example 2, N-{3-[5-Cyclopropyl-2-(3-fluoro-phenylamino)-pyrimidin-4-ylamino]-propyl}-isobutyramide trifluoroacetic acid salt]: the IC50 was under 100 nM.

As for `O=C(NCCCNc1nc(Nc2cccc(F)c2)ncc1C1CC1)C1CCCCC1` [Example 3, Cyclohexanecarboxylic acid {3-[5-cyclopropyl-2-(3-fluoro-phenylamino)-pyrimidin-4-ylamino]-propyl}-amide trifluoroacetic acid salt], the IC50 was under 100 nM.

Take `CN(C)CC(=O)NCCCNc1nc(Nc2cccc(F)c2)ncc1C1CC1` [Example 4, N-{3-[5-Cyclopropyl-2-(3-fluoro-phenylamino)-pyrimidin-4-ylamino]-propyl}-2-dimethylamino-acetamide trifluoroacetic acid salt]: the IC50 lay within 100 to 1000 nM.

Take `O=C(NCCCNc1nc(Nc2cccc(F)c2)ncc1C1CC1)c1ccco1` [Example 5, Furan-2-carboxylic acid{3-[5-cyclopropyl-2-(3-fluoro-phenylamino)-pyrimidin-4-ylamino]-propyl}-amide trifluoroacetic acid salt]: the IC50 fell in the range of 100 to 1000 nM.

`O=C(CC1CCCC1)NCCCNc1nc(Nc2cccc(F)c2)ncc1C1CC1` [Example 6, 2-Cyclopentyl-N-{3-[5-cyclopropyl-2-(3-fluoro-phenylamino)-pyrimidin-4-ylamino]-propyl}-acetamide trifluoroacetic acid salt]: the 50% inhibitory concentration (IC50) was under 100 nM.

Consider `O=C(NCCCNc1nc(Nc2cccc(F)c2)ncc1C1CC1)c1ccn[nH]1` [Example 7, 2H-Pyrazole-3-carboxylic acid {3-[5-cyclopropyl-2-(3-fluoro-phenylamino)-pyrimidin-4-ylamino]-propyl}-amide trifluoroacetic acid salt], for which the IC50 is 100 to 1000 nM.

`Cc1oncc1C(=O)NCCCNc1nc(Nc2cccc(F)c2)ncc1C1CC1` [Example 8, 5-Methyl-isoxazole-4-carboxylic acid{3-[5-cyclopropyl-2-(3-fluoro-phenylamino)-pyrimidin-4-ylamino]-propyl}-amide trifluoroacetic acid salt]: the IC50 was under 100 nM.

Regarding `O=C(NCCCNc1nc(Nc2cccc(F)c2)ncc1C1CC1)c1nc[nH]n1` [Example 9, 1H-1,2,4-Triazole-3-carboxylic acid {3-[5-cyclopropyl-2-(3-fluoro-phenylamino)-pyrimidin-4-ylamino]-propyl}-amide trifluoroacetic acid salt], the IC50 lay within 100 to 1000 nM.

The same assay, now with this note: Table 5; 50 μM ATP; read-out: TBK1 IC50.
For `CC(C)c1cnc(Nc2cccc(F)c2)nc1NCCCNC(=O)C1CCC1` [Compound B, cyclobutanecarboxylic acid {3-[2-(3-fluoro-phenylamino)-5-isopropyl-pyrimidin-4-ylamino]-propyl}-amide, reference compound], the IC50 was over 1000 nM.

For the molecule `O=C(NCCCNc1nc(Nc2cccc(F)c2)ncc1CC1CC1)C1CCC1` [Compound C, cyclobutanecarboxylic acid {3-[5-cyclopropylmethyl-2-(3-fluoro-phenylamino)-pyrimidin-4-ylamino]-propyl}-amide, reference compound], the IC50 is over 1000 nM.

`CCc1cnc(Nc2cccc(F)c2)nc1NCCCNC(=O)C1CCC1` [Compound D, cyclobutanecarboxylic acid {3-[5-ethyl-2-(3-fluoro-phenylamino)-pyrimidin-4-ylamino]-propyl}-amide, reference compound]: the IC50 was 42 nM.

The same assay, now with this note: from TBK1 IC50 values of Table 5.
For `CCc1cnc(Nc2cccc(F)c2)nc1NCCCNC(=O)C1CCC1` [Compound D, cyclobutanecarboxylic acid {3-[5-ethyl-2-(3-fluoro-phenylamino)-pyrimidin-4-ylamino]-propyl}-amide, reference compound], the “fold loss in activity against TBK1 compared to Example 23” value is listed as 10 fold.
